Laboratory results from patent US9278958B2, “Anti-cancer compounds” (KATHOLIEKE UNIVERSITEIT LEUVEN, priority 2012, dated 2016).
Where two headings read alike, the source gives them in different places.

Key:
Huh-7 hepatoma cells = assay: Cytostatic assay, Huh-7; format: cell-based; details: Homo sapiens, Table 4
Procedure: (§1) To each well of a 96-well microtiter plate were added 5-7.5×10^4 cells and a given amount of the test compound. The cells were allowed to proliferate for 48 h to 96 h (depending on the nature of the cell line) at 37° C. in a humidified CO2-controlled atmosphere. At the end of the incubation period, the cells were counted in a Coulter Counter (Coulter Electronics Ltd, Harpenden Herts, United Kingdom).

Molt4/C8 cells = assay: Cytostatic assay, Molt4/C8; format: cell-based; details: Table 2
Procedure: as §1

[1] = test system: Caki-1 kidney carcinoma cells; assay: Cytostatic assay, Caki-1; format: cell-based; details: Homo sapiens, Table 3
Procedure: as §1

[2] = test system: LNCaP (UZ) prostate cancer cells; assay: Cytostatic assay, LNCaP (UZ); format: cell-based; details: Homo sapiens, Table 4
Procedure: as §1

[3] = test system: THP-1, human monocytic cells; assay: Cytostatic assay, THP-1; format: cell-based; details: Table 2
Procedure: as §1

L1210 cells = assay: Cytostatic assay, L1210; format: cell-based; details: Mus musculus, Table 2
Procedure: as §1

[4] = test system: HL60, human leukemia cells; assay: Cytostatic assay, HL-60; format: cell-based; details: Table 2
Procedure: as §1

HepG2C3A hepatoma cells = assay: Cytostatic assay, HepG2C3A; format: cell-based; details: Homo sapiens, HepG2/C3A; Table 4
Procedure: as §1

[5] = test system: HeLa cervix carcinoma cells; assay: Cytostatic assay, HeLa; format: cell-based, human; details: Homo sapiens; Table 3; read-out: Cytostatic activity (μM) Hela
Procedure, shortened: (§2)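 Each cell line grows in the presence of compound for 48 h to 96 h, the duration chosen per line, at 37° C in a humid CO2-regulated incubator. Seeding is 5-7.5×10^4 cells per well, and final counts come from a Coulter counter.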

[6] = test system: HT29 colorectal carcinoma cells; assay: Cytostatic assay, HT29; format: cell-based; details: Homo sapiens, HT-29; Table 3
Procedure: as §1

[7] = test system: MCF-7 mammary carcinoma cells; assay: Cytostatic assay, MCF-7; format: cell-based; details: Homo sapiens, MCF7; Table 3
Procedure: as §1

MT-2 cells = assay: Cytostatic assay, MT-2; format: cell-based; details: Homo sapiens, MT2; Table 2
Procedure: as §1

[8] = test system: PC3 (rega) prostate cancer cells; assay: Cytostatic assay, PC3 (rega); format: cell-based; details: Table 4
Procedure: as §1

[9] = test system: DU145 (UZ) prostate cancer cells; assay: Cytostatic assay, DU145 (UZ); format: cell-based; details: Homo sapiens, DU-145; Table 4
Procedure: as §1

CEM cells = assay: Cytostatic assay, CEM; format: cell-based; details: Homo sapiens, CCRF-CEM
Procedure, shortened: as §2

[10] = test system: HEL embryonic lung fibroblast cells; assay: Cytostatic assay, HEL; format: cell-based; details: Homo sapiens, Table 3
Procedure: as §1

BPH-1 (UZ) = assay: Cytostatic assay, BPH-1 (UZ); format: cell-based; details: Homo sapiens, Table 4
Procedure: as §1

MT-4 cells = assay: Cytostatic assay, MT-4; format: cell-based; details: Homo sapiens, MT4; Table 2
Procedure: as §1

PLC/PRF/5 hepatoma cells = assay: Cytostatic assay, PLC/PRF/5; format: cell-based; details: Homo sapiens, Table 4
Procedure: as §1

[11] = test system: 293T embryonic kidney cells; assay: Cytostatic assay, 293T; format: cell-based; details: Homo sapiens, HEK-293T; Table 3
Procedure: as §1

HUT-78 cells = assay: Cytostatic assay, HUT-78; format: cell-based; details: Homo sapiens, HuT78; Table 2
Procedure: as §1

[12] = test system: PNT1A (UZ) prostate cells; assay: Cytostatic assay, PNT1A (UZ); format: cell-based; details: Homo sapiens, Table 4
Procedure: as §1

[13] = test system: OST TK- osteosarcoma cells; assay: Cytostatic assay, OST TK-; format: cell-based; details: Homo sapiens; Table 3
Procedure: as §1

Sup T1 cells = assay: Cytostatic assay, Sup T1; format: cell-based; details: Homo sapiens, Table 2, read-out: Cytostatic activity (μM) Sup T 1
Procedure: as §1

[14] = test system: 22Rv1 (UZ) prostate cancer cells; assay: Cytostatic assay, 22Rv1 (UZ); format: cell-based; details: Homo sapiens, Table 4
Procedure: as §1

[15] = test system: U937, human monocytic cells; assay: Cytostatic assay, U937; format: cell-based; details: U-937, Table 2
Procedure: as §1

[16] = test system: Caki-2 kidney carcinoma cells; assay: Cytostatic assay, Caki-2; format: cell-based; details: Homo sapiens, Table 3
Procedure: as §1

[17] = test system: Raji, human B-lymphoma cells; assay: Cytostatic assay, Raji; format: cell-based; details: Table 2
Procedure: as §1

[18] = test system: PC-3 (UZ) prostate cancer cells; assay: Cytostatic assay, PC-3 (UZ); format: cell-based; details: Table 4
Procedure: as §1

C8166 cells = assay: Cytostatic assay, C8166; format: cell-based; details: Homo sapiens, Table 2
Procedure: as §1

U87 glioma cells = assay: Cytostatic assay, U87; format: cell-based; details: Homo sapiens, U-87 MG; Table 3
Procedure: as §1

[19] = test system: BAEC aortic endothelial cells; assay: Cytostatic assay, BAEC; format: cell-based, bovine; details: Bos taurus, Table 3
Procedure: as §1

[20] = test system: FM3A mammary carcinoma cells; assay: Cytostatic assay, FM3A; format: cell-based, murine; details: Mus musculus, Table 3
Procedure: as §1

[21] = Table 1a, read-out: IC50 μM (CEM)
[22] = Table 2, read-out: Cytostatic activity (μM) CEM

| Compound | IC50 (Huh-7 hepatoma cells) | IC50 (Molt4/C8 cells) | IC50 [1] | IC50 [2] | IC50 [3] | IC50 (L1210 cells) | IC50 [4] | IC50 (HepG2C3A hepatoma cells) | IC50 [5] | IC50 [6] | IC50 [7] | IC50 (MT-2 cells) | IC50 [8] | IC50 [9] | IC50 (CEM cells; [21]) | IC50 (CEM cells; [22]) | IC50 [10] | IC50 (BPH-1 (UZ)) | IC50 (MT-4 cells) | IC50 (PLC/PRF/5 hepatoma cells) | other results |
| --- | --- | --- | --- | --- | --- | --- | --- | --- | --- | --- | --- | --- | --- | --- | --- | --- | --- | --- | --- | --- | --- |
| CCOC(=O)c1cc(CCc2cc(OC)ccc2OC)sc1N [TR587, 2-Amino-5-[2-(2,5-dimethoxy-phenyl)-ethyl]-thiophene-3-carboxylic acid ethyl ester] | 0.71 ± 0.35 µM | 1.1 ± 1 µM | 1.4 ± 0.5 µM | 0.35 ± 0.064 µM | 0.71 ± 0.18 µM | 1.2 ± 0.4 µM | 0.46 ± 0.35 µM | 1.1 ± 0.49 µM | 0.33 ± 0.028 µM | 1.7 ± 0.14 µM | 0.83 ± 0.35 µM | 0.7 ± 0.3 µM | 0.33 ± 0.099 µM | 1.4 ± 0.21 µM | 0.76 µM | 0.76 ± 0.48 µM | 0.27 ± 0.22 µM | 0.39 ± 0.007 µM | 1.7 ± 0.59 µM | 0.26 ± 0.15 µM | IC50 [11]: 1 ± 0.11 µM; IC50 (HUT-78 cells): 0.43 ± 0.24 µM; IC50 [12]: 0.41 ± 0.028 µM; IC50 [13]: 0.51 ± 0.42 µM; IC50 (Sup T1 cells): 0.54 ± 0.007 µM; IC50 [14]: 0.19 ± 0.11 µM; IC50 [15]: 0.92 ± 0.08 µM; IC50 [16]: 3.2 ± 2.4 µM; IC50 [17]: 1.8 ± 0.42 µM; IC50 [18]: 0.52 ± 0.007 µM; IC50 (C8166 cells): 0.82 ± 0.16 µM; IC50 (U87 glioma cells): 1.6 ± 1.1 µM; IC50 [19]: 0.93 ± 0.67 µM; IC50 [20]: 2 ± 0.28 µM |
| N#Cc1cc(CCc2ccccc2)sc1N [TR588, 2-Amino-5-phenethyl-thiophene-3-carbonitrile] | 21 ± 7.1 µM | 8.5 ± 3.4 µM | 1.3 ± 0.4 µM | 5.3 ± 4.3 µM | 8.4 ± 0.28 µM | 40 ± 6 µM | 3.9 ± 0.5 µM | 64 ± 52 µM | 27 ± 28 µM | 66 ± 6.4 µM | 26 ± 2.1 µM | 6.65 ± 1.9 µM | 3.1 ± 1.2 µM | 24 ± 4.9 µM | 47 µM | 47 ± 25 µM | 30 ± 6.4 µM | ≥ 100 µM | 75 ± 35 µM | 41 ± 3.5 µM | IC50 [11]: 34 ± 14 µM; IC50 (HUT-78 cells): 18 ± 7.1 µM; IC50 [12]: 66 ± 31 µM; IC50 [13]: 27 ± 18 µM; IC50 (Sup T1 cells): > 200 µM; IC50 [14]: 61 ± 34 µM; IC50 [15]: 42 ± 2.1 µM; IC50 [16]: 78 ± 69 µM; IC50 [17]: 39 ± 21 µM; IC50 [18]: 11 ± 4.2 µM; IC50 (C8166 cells): ≥ 200 µM; IC50 (U87 glioma cells): 46 ± 7.8 µM; IC50 [19]: 45 ± 4.9 µM; IC50 [20]: 67 ± 23 µM |
